Where “and” joins values, the source holds several entries; their conditions need not be identical. Equal entries are not always repeated.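 Cultured in 96-well plates, cells were exposed to test compound for 48 hours across five concentrations. At the GI50, growth is halved. TGI denotes the concentration required for complete inhibition of growth.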
How the values were obtained:
Test in all cases: NCI-60 cell line screen, 48 h
[1] = system: BT-549 breast
[2] = system: EKVX NSCLC
[3] = system: HL-60(TB) leukemia
[4] = system: KM12 colon
[5] = system: M14 melanoma
[6] = system: NCI-H226 lung
[7] = system: OVCAR-5 ovarian
[8] = system: SF-295 CNS
[9] = system: SNB-19 CNS
[10] = system: U251 CNS

Compound | TGI [1] | TGI [2] | TGI [3] | TGI [4] | TGI [5] | TGI [6] | TGI [7] | TGI [8] | TGI [9] | TGI [10] | GI50 [1] | GI50 [2] | GI50 [3] | GI50 [4] | GI50 [5] | GI50 [6] | GI50 [7] | GI50 [8] | GI50 [9] | GI50 [10]
CC(C)(C)OC[C@H](O)CC#N | > 100 µM | > 100 µM | > 100 µM | > 100 µM | > 100 µM | > 100 µM | > 100 µM | > 100 µM | > 100 µM | > 100 µM |  |  |  |  |  |  |  |  |  | 
O=C1CC(=O)OC(c2ccc([N+](=O)[O-])cc2)O1 | 3.87 µM | 18.3 µM | 5.51 µM | 4.03 µM | 4 µM | 5.5 µM | 4.93 µM | 14 µM | 12.3 µM | 3.11 µM | 2 µM | 3.56 µM | 2.01 µM | 1.95 µM | 1.97 µM | 2.07 µM | 2.04 µM | 4.85 µM | 3.43 µM | 1.61 µM
O=C1NC2(CN3CCC2CC3)C(=O)N1CN(Cc1ccccc1)c1ccccc1 (stereo unspecified) | > 100 µM | > 100 µM | 44.7 µM | > 100 µM | > 100 µM | > 100 µM | > 100 µM | > 100 µM | > 100 µM | > 100 µM |  |  |  |  |  |  |  |  |  | 
COC(=O)CCCCCN=Cc1c(O)c(O)c(C(C)C)c2cc(C)c(-c3c(C)cc4c(C(C)C)c(O)c(O)c(C=NCCCCCC(=O)OC)c4c3O)c(O)c12 | > 32.5 µM | > 32.5 µM | 7.93 µM | > 32.5 µM | 25.9 µM | 19 µM |  | 5.34 µM | > 32.5 µM | 5.6 µM | 3 µM | 1.18 µM | 1.09 µM | 1.28 µM | 2.3 µM | 3.15 µM |  | 0.911 µM | 1.21 µM | 1 µM
O=C(O)CSc1ncccc1[N+](=O)[O-] | > 100 µM | > 100 µM | > 100 µM | > 100 µM | > 100 µM | > 100 µM | > 100 µM | > 100 µM | > 100 µM | > 100 µM |  |  |  |  |  |  |  |  |  | 
CCN(CC)CCNc1n[n+]([O-])c2ccccc2[n+]1[O-] | 34.2 µM and 74.1 µM | 44 µM | 7.61 µM and 8.95 µM | 25.2 µM and 29 µM | 21 µM and 28.7 µM | 23.7 µM and 29.9 µM | 38.6 µM and 35.8 µM | 39.5 µM and 23.9 µM | > 72.1 µM and 56 µM | > 52.4 µM and 36.9 µM |  |  |  |  |  |  |  |  |  | 
Cn1c(=O)c2c(ncn2CN2CCN(Cn3cnc4c3c(=O)n(C)c(=O)n4C)CC2)n(C)c1=O | > 100 µM | > 100 µM | 54 µM | > 100 µM | > 100 µM | > 100 µM | > 100 µM | > 100 µM | > 100 µM | > 100 µM |  |  |  |  |  |  |  |  |  | 
Cn1cc(CNCC2CCN(c3ncc(C(=O)NO)cn3)CC2)c2ccccc21 | 14.3 µM | 23.4 µM | 17.5 µM | 0.589 µM | 1.25 µM | 1.09 µM | 0.598 µM | 0.188 µM | 0.9 µM | 0.128 µM | 0.225 µM | 0.0255 µM | 0.0242 µM | 0.0215 µM | 0.0114 µM | 0.0351 µM | < 0.01 µM | 0.0169 µM | 0.0251 µM | 0.0133 µM
CNC(=S)N/N=C/c1ccc([N+](=O)[O-])s1 | > 10 µM | > 10 µM | > 10 µM | > 10 µM | > 10 µM | > 10 µM | > 10 µM | > 10 µM | > 10 µM | > 10 µM |  |  |  |  |  |  |  |  |  | 
Cc1nc(C(N)=S)sc1C(=O)C/C(=N/N)C(=O)Nc1cccc(Cl)c1C | > 100 µM | > 100 µM | > 100 µM | > 100 µM | > 100 µM | > 100 µM | > 100 µM | > 100 µM | > 100 µM | > 100 µM |  |  |  |  |  |  |  |  |  | 
COc1ccc(CN2c3ccccc3CCc3ccccc32)cc1F | 41.2 µM | > 100 µM |  | > 100 µM | > 100 µM | > 100 µM | > 100 µM | > 100 µM | > 100 µM | > 100 µM | 0.776 µM | 1.55 µM |  | 0.387 µM | 0.354 µM | 2.43 µM | 1.9 µM | 0.333 µM | 0.697 µM | 0.496 µM
COc1cc2nc(-c3ccc(C(F)(F)F)cc3)cc(OCCCN3CCCCC3)c2cc1OC | 11.7 µM | 14.6 µM | 18.3 µM | 26.9 µM | 1.26 µM | 3.51 µM | 16.5 µM | 2.04 µM | 14.6 µM | 14.8 µM | 1.48 µM | 0.803 µM | 2.91 µM | 2.92 µM | 0.327 µM | 0.37 µM | 0.71 µM | 0.53 µM | 2.82 µM | 1.1 µM
Fc1cccc(Cl)c1/C=N\N=C1c2ccccc2-c2ccccc21 | > 100 µM | > 100 µM | > 100 µM | > 100 µM | > 100 µM | > 100 µM | > 100 µM | > 100 µM | > 100 µM | > 100 µM |  |  |  |  |  |  |  |  |  | 
Cc1c2ccc(N(C)c3ccnc(Nc4cccc(S(N)(=O)=O)c4)n3)cc2nn1C | > 25 µM | > 25 µM | > 19.1 µM | > 25 µM | > 25 µM | > 25 µM | > 25 µM | > 19.9 µM | > 25 µM | > 25 µM | 9.48 µM | 11.8 µM | 8.44 µM | 8.12 µM | 9.73 µM | 6.2 µM | 11.4 µM | 6.81 µM | > 22.9 µM | 10.9 µM
Cc1ccc(NC(=O)Cn2c(Br)nc3c2c(=O)n(C)c(=O)n3C)cc1 | 24 µM | 25.9 µM | > 100 µM | 29.9 µM | 19.2 µM | 4.76 µM | 13.9 µM | 21.8 µM | 23.7 µM | 5.75 µM | 11.1 µM | 10.7 µM | > 100 µM | 13.6 µM | 5.98 µM | 2.07 µM | 3.69 µM | 9.84 µM | 7.92 µM | 2.26 µM
CSC1=NS(=O)(=O)c2cc(C(=O)NN(C)C(=O)c3cc4c(cc3Cl)SC(SC)=NS4(=O)=O)c(Cl)cc2S1 | > 10 µM | > 10 µM | > 10 µM | > 10 µM | > 10 µM | > 10 µM | > 10 µM | > 10 µM | > 10 µM | > 10 µM |  |  |  |  |  |  |  |  |  | 
